Assay results as given in paper PMC5908295 (Oncotarget, 2018).
Read-outs that look alike come from different tables or passages of the source.

Tests used:
[1] = tested on: SKNO-1; assay: MTS viability assay, 72 h; conditions: SKNO-1, 72 h
Experimental: (§13) 15-25 ×10^3 of MV-4-11, MOLM-13, MOLM-14, MOLM-16, KG-1, Eol-1, SKM-1, PL-21, GDM-1, SKNO-1, RS4;11, Kasumi-3 and Kasumi-6 cells were seeded in 150 μL of culture medium onto individual wells in a 96 well plates, in triplicates. On the same day, 50 μL of medium containing tested inhibitor was added to the wells. Each compound was tested at 8 concentrations, in triplicates. As a negative control, the medium containing 0.1% DMSO was used. […] Staurosporine was used at 10 μM as a positive control. One the day of drug addition, basal signal from untreated cells was measured from in triplicate to determine time zero (T0). […] GI50 and LC50 values were extrapolated from a variable (four-parameter) dose-response curve fitted in GraphPad Prism.

[2] = tested on: KASUMI-3; assay: MTS viability assay, 72 h; conditions: Kasumi-3, 72 h
Experimental: as §13

[3] = tested on: MOLM-14 cells transduced with FLT3 TKD point mutations (D835Y, D835V and F691L); assay: MTS viability of MOLM-14 cells with FLT3 alleles; format: cell-based; conditions: 72 h
[4] = Pharmacokinetics after oral and intravenous administration; format: in vivo, dogs (Beagle); conditions: male, Beagle, plasma, Dog, Dose PO/IV 5/1 mg/kg
Experimental: (§1) therapeutic potential in acute myeloid leukemia
(§2) sheet for further calculations.
(§3) Three male Beagle dogs were administered

[5] = tested on: Phospho-S6 in MOLM-16 tumors; assay: PK/PD: phospho-S6 in MOLM-16 tumors after dosing; format: in vivo, SCID/beige mice; conditions: 25 mg/kg BID for 3 days
Experimental: At the end of the experiment, mice were sacrificed 4, 8 and 24h after the last dose (three mice per time point). Plasma and tumor samples were collected and stored at −80°C for further analysis.

[6] = molecular target: CYP1A2 (Homo sapiens, UniProt P05177); assay: CYP isoforms inhibition; format: in vitro ADME; conditions: 5-dose, 3-fold dilution starting at 30 µM; in-house
Chain of CYP1A2 (P05177 whole entry, canonical isoform): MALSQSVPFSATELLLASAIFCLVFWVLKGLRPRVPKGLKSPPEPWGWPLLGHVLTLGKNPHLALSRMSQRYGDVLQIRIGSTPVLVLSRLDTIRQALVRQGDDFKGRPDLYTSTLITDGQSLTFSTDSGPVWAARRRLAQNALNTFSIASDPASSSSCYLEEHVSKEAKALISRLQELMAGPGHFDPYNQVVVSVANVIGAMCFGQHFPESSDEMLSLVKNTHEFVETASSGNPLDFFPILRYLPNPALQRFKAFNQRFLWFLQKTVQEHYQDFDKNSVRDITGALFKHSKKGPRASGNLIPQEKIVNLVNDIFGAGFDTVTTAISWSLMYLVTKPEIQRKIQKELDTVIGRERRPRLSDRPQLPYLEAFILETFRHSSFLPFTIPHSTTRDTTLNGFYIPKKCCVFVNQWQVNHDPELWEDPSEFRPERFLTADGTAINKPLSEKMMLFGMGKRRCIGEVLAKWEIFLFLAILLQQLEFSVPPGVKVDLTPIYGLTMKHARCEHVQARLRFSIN
Experimental: (§4) or absence of enzyme cofactors. The assay was performed microsomes. (Supplementary Table 7).
(§5) with the respective reference samples (i.e. without measured at Cambridge Bioscience Limited (except
(§6) cofactors). After incubation, drug transformation by liver CYP1A2 inhibition which was measured in-house). The
(§7) enzymes was terminated by adding cold acetonitrile.
(§8) loss of compound was determined by LC-MS analysis. serial dilution starting at 30 μM. The control compound
(§9) The analysis of two standard compounds (i.e. positive a very weak potential for CYP inhibition with IC50
(§10) and negative controls) was included. […]

[7] = molecular target: T1, CYP2B6 (Homo sapiens, UniProt P20813); assay: CYP isoforms inhibition; format: in vitro ADME; conditions: 5-dose, 3-fold dilution starting at 30 µM
T1 construct: Cambridge Bioscience Limited (ran the assay)
T1 sequence (P20813 whole entry, canonical isoform): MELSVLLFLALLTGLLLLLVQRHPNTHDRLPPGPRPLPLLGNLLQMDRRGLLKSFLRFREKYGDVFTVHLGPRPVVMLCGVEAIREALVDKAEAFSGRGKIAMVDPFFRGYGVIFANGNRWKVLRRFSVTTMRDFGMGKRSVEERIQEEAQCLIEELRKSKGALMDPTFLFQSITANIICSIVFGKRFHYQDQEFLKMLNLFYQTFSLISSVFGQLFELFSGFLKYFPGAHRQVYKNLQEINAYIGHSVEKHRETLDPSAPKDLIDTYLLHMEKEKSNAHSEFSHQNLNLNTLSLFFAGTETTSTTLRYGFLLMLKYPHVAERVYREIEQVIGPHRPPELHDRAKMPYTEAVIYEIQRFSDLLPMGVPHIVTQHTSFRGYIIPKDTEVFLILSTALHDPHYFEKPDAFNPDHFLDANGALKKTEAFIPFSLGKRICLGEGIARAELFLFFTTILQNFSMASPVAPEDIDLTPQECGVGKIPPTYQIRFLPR
Experimental: as §4, §5, §6, §7, §8, §9, §10

[8] = molecular target: T2, CYP2C8 (Homo sapiens, UniProt P10632); assay: CYP isoforms inhibition; format: in vitro ADME; conditions: 5-dose, 3-fold dilution starting at 30 µM
T2 construct: Cambridge Bioscience Limited (ran the assay)
T2 sequence (P10632 whole entry, canonical isoform): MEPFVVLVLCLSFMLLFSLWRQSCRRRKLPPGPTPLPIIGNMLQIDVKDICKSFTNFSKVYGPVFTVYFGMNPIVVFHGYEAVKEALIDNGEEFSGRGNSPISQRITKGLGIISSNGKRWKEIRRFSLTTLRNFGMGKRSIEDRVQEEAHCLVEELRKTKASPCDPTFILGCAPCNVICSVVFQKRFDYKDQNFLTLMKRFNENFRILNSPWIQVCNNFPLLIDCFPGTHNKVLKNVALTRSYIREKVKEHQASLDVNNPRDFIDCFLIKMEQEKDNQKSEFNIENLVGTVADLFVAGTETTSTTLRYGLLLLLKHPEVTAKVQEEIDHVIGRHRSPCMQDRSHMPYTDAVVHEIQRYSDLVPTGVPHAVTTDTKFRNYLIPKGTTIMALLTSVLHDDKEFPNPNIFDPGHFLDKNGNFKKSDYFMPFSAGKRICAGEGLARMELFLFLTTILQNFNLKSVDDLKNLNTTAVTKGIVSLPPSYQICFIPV
Experimental: as §4, §5, §6, §7, §8, §9, §10

[9] = tested on: MOLM-13; assay: MTS viability assay, 72 h; conditions: Homo sapiens, MOLM-13, 72 h
Experimental: as §13

[10] = molecular target: PIM1 (Homo sapiens, UniProt P11309); assay: KINOMEscan Kd (DiscoverX); format: binding
Chain of PIM1 (P11309 whole entry): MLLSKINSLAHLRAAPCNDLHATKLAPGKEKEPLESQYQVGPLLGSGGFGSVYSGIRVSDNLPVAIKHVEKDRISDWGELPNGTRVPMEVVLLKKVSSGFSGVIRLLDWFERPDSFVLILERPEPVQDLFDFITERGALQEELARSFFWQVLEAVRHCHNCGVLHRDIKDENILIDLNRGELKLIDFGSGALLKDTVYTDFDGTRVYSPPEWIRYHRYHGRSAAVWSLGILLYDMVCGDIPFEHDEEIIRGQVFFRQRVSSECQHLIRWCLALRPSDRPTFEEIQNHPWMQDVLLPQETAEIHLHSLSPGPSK

[11] = tested on: MOLM-6; assay: MTS viability assay, 72 h; conditions: 72 h
Experimental: as §13

[12] = tested on: SIG-M5; assay: MTS viability assay, 72 h; conditions: Homo sapiens, SIG-M5, 72 h
Experimental: On the same day, 50 μL of medium containing tested inhibitor was added to the wells. Each compound was tested at 8 concentrations, in triplicates. As a negative control, the medium containing 0.1% DMSO was used. […] Staurosporine was used at 10 μM as a positive control. One the day of drug addition, basal signal from untreated cells was measured from in triplicate to determine time zero (T0). […] GI50 and LC50 values were extrapolated from a variable (four-parameter) dose-response curve fitted in GraphPad Prism.

[13] = Metabolic stability, liver microsomes; format: in vitro ADME; conditions: Rat, 37 °C, read-out: Liver microsomes t1/2 (converted)
[14] = tested on: MOLM-14; assay: MTS viability assay, 72 h; conditions: Homo sapiens, MOLM-14, 72 h
Experimental: as §13

[15] = tested on: GDM-1; assay: MTS viability assay, 72 h; conditions: Homo sapiens, GDM-1, 72 h
Experimental: as §13

[16] = molecular target: FLT3 (ITD) (Homo sapiens, UniProt P36888); assay: KINOMEscan Kd (DiscoverX); format: binding; conditions: comparison of Kd
Chain of FLT3 (ITD) (Homo sapiens, UniProt P36888) (P36888 564-993, stated change not applied): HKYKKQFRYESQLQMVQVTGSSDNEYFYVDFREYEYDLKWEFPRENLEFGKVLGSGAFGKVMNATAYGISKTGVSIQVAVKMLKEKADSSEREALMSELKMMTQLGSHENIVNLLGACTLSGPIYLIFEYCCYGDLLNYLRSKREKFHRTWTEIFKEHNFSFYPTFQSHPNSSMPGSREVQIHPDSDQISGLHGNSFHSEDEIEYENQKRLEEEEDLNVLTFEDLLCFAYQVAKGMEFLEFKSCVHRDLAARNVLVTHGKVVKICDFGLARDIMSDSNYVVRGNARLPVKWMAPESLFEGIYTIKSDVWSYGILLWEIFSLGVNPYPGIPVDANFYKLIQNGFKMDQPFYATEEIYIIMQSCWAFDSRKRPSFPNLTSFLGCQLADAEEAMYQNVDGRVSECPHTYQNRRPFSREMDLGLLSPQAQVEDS
Experimental: (§11) Dissociation constants (Kd) and inhibition levels of FLT3 mutants were measured at DiscoverX using the KINOMEscan^TM Profiling Service (KdELECT).

[17] = molecular target: FLT3 (ITD) (Homo sapiens, UniProt P36888, ITD); assay: KINOMEscan Kd (DiscoverX); format: binding
Chain of FLT3 (ITD) (Homo sapiens, UniProt P36888, ITD) (P36888 564-993, change not shown): as the sequence (P36888 564-993, stated change not applied) above
Experimental: as §11

[18] = tested on: S6 phosphorylation (Ser235/236) in KG-1 cells; assay: S6 phosphorylation, flow cytometry; format: cell-based; conditions: Homo sapiens; KG-1, 4 hours
Experimental: (§12) For biomarker experiments, MV-4-11, MOLM-13 and KG-1 cells were seeded at 1 × 10^6 in 3 ml of medium, while MOLM-16 cells were seeded at 1 × 10^6 in 4 ml of medium and left for ~ 18 hours (37°C, 5% CO2). […] Final concertation of DMSO was 0.1%. After 4h of incubation cells were harvested, centrifuged and washed with ice-cold PBS. Cells were fixed with 4% paraformaldehyde buffered with PBS and permeabilized with 90% methanol. Cells were incubated with primary antibody (S6 phopspho-Ser235/236, Cell Signaling, Cat. No: 4856) diluted 1:200 in 0.5% BSA/PBS. […] Cells were analyzed on Flow Cytometer BD LSR II with an excitation wavelength of 488 nm and peak emission 590 nm.

[19] = tested on: S6 phosphorylation (Ser235/236) in MOLM-16 cells; assay: S6 phosphorylation, flow cytometry; format: cell-based; conditions: MOLM16; MOLM-16, 4 hours
Experimental: as §12

[20] = tested on: S6 phosphorylation (Ser235/236) in MOLM-13 cells; assay: S6 phosphorylation, flow cytometry; format: cell-based; conditions: Homo sapiens; MOLM-13, 4 hours
Experimental: as §12

[21] = tested on: S6 phosphorylation (Ser235/236) in MV-4-11 cells; assay: S6 phosphorylation, flow cytometry; format: cell-based; conditions: Homo sapiens, MV4-11; MV-4-11, 4 hours
Experimental: as §12

[22] = Pharmacokinetics after oral and intravenous administration; format: in vivo, mice (CD-1); conditions: female, CD-1, plasma, Mouse, Dose PO/IV 50/15 mg/kg
Experimental: as §1, §2, §3

[23] = tested on: PL-21; assay: MTS viability assay, 72 h; conditions: PL-21, 72 h
Experimental: as §13

[24] = tested on: KG-1; assay: MTS viability assay, 72 h; conditions: Homo sapiens, KG-1, 72 h
Experimental: as §13

[25] = molecular target: PIM2 (Homo sapiens, UniProt Q9P1W9); assay: KINOMEscan Kd (DiscoverX); format: binding
Chain of PIM2 (Q9P1W9 whole entry): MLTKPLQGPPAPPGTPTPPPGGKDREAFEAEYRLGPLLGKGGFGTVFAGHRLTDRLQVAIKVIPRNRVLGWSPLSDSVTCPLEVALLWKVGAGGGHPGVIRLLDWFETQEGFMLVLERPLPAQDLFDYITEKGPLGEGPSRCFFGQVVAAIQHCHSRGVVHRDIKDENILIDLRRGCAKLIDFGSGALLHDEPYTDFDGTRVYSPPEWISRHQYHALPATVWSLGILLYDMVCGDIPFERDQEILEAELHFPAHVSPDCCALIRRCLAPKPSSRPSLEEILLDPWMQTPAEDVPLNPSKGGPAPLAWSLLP

CC(C)n1c(C2CCNCC2)nc2c([N+](=O)[O-])c(Br)c(Br)cc21 [SEL24-B489, 5,6-dibromo-4-nitro-2-(piperidin-4-yl)-1-(propan-2-yl)-1H-1,3-benzodiazole]
GI50 [1]: 18 nM
GI50 [2]: 633 nM
CC50 ([2]; read-out: LC50): 2330 nM
viability of MOLM-14 cells with FLT3-TKD mutants versus FLT3-ITD or parental cells [3]: neither of the FLT3 TKD point mutations decreased the cellular sensitivity
Cmax ([4]; 5 mg/kg): 155 ng/mL
Tmax ([4]; 5 mg/kg): 1.75 h
bioavailability ([4]; 5 mg/kg, read-out: F (bioavailability)): 47%
AUC(0-t) [4]: 3080 ng·h/mL
half-life [4]: 17.6 h
time after the last dose that Phospho-S6 remained suppressed [5]: up to 8 hours
IC50 [6]: > 30000 nM
IC50 [7]: > 40000 nM
IC50 [8]: > 30000 nM
GI50 [9]: 73 nM
CC50 ([9]; read-out: LC50): 446 nM
Kd [10]: 2 nM
GI50 [11]: 449 nM
CC50 ([11]; read-out: LC50): 7200 nM
GI50 [12]: 806 nM
CC50 ([12]; read-out: LC50): 3440 nM
half-life at 1 µM [13]: 21.8 h
GI50 [14]: 97 nM
CC50 ([14]; read-out: LC50): > 10000 nM
GI50 [15]: 680 nM
stronger inhibitor binding to FLT3-ITD than to FLT3-WT [16]: 10 fold
Kd [17]: 16 nM
IC50 [18]: 195 nM
IC50 [19]: 58 nM
IC50 [20]: 102 nM
IC50 [21]: 13 nM
Cmax ([22]; 50 mg/kg): 2180 ng/mL
Tmax ([22]; 50 mg/kg): 4 h
bioavailability ([22]; 50 mg/kg, read-out: F (bioavailability)): 62%
AUC(0-t) [22]: 26200 ng·h/mL
half-life [22]: 5.2 h
GI50 [23]: 1710 nM
GI50 [24]: 67 nM
CC50 ([24]; read-out: LC50): 2440 nM
Kd [25]: 2 nM
